Laboratory results reported in ChEMBL document CHEMBL1201862, “PubChem BioAssay data set” (2004).
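Step 1: Grow cells in 96-well plates. Step 2: Expose to compound for 48 hours at 5 concentrations. Step 3: Interpolate endpoints linearly; if unreached, use highest concentration. The concentration for 50% growth inhibition is given as GI50.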 Calls of active or inactive are those of the source. Cut-off read from the data, not from the text of the source: active = GI50 up to about 1.1 µM and inactive = higher.

Columns and labels:
Assay in all cases: NCI anticancer screen, dose series, 48 h
SK-MEL-2 = tested on: SK-MEL-2
SNB-75 = tested on: SNB-75
UACC-257 = tested on: UACC-257
NCI/ADR-RES = tested on: NCI/ADR-RES
RPMI-8226 = tested on: RPMI-8226
COLO 205 = tested on: COLO 205
OVCAR-4 = tested on: OVCAR-4
HCT-15 = tested on: HCT-15
DU-145 = tested on: DU-145
MCF7 = tested on: MCF7
SF-268 = tested on: SF-268
MDA-MB-435 = tested on: MDA-MB-435
M14 = tested on: M14
PC-3 = tested on: PC-3
UO-31 = tested on: UO-31
A498 = tested on: A498
SK-MEL-28 = tested on: SK-MEL-28
HOP-92 = tested on: HOP-92
SK-OV-3 = tested on: SK-OV-3
SN12C = tested on: SN12C

SMILES | GI50 (SK-MEL-2) | GI50 (SNB-75) | GI50 (UACC-257) | GI50 (NCI/ADR-RES) | GI50 (RPMI-8226) | GI50 (COLO 205) | GI50 (OVCAR-4) | GI50 (HCT-15) | GI50 (DU-145) | GI50 (MCF7) | GI50 (SF-268) | GI50 (MDA-MB-435) | GI50 (M14) | GI50 (PC-3) | GI50 (UO-31) | GI50 (A498) | GI50 (SK-MEL-28) | GI50 (HOP-92) | GI50 (SK-OV-3) | GI50 (SN12C)
NC(Cc1cccnn1)C(=O)O (stereo not given) | > 100 µM (inactive) | > 100 µM (inactive) | > 100 µM (inactive) | > 100 µM (inactive) | > 100 µM (inactive) | > 100 µM (inactive) | > 100 µM (inactive) | > 100 µM | > 100 µM (inactive) | > 100 µM (inactive) | > 100 µM (inactive) | > 100 µM (inactive) | > 100 µM (inactive) | > 100 µM (inactive) | > 100 µM (inactive) | > 100 µM (inactive) | > 100 µM (inactive) | > 100 µM (inactive) | > 100 µM (inactive) | > 100 µM (inactive)
O=C1C=CC(=O)c2c(O)c(N(CCCl)CCCl)c(Cl)c(O)c21 | 4.78 µM (inactive) | 7.8 µM (inactive) | 3.3 µM (inactive) | 6.89 µM (inactive) | > 8.39 µM (inactive) | 3.94 µM (inactive) | 4.49 µM (inactive) | 5.45 µM | > 8.63 µM (inactive) | 5.07 µM (inactive) | 5.46 µM (inactive) | 4.31 µM (inactive) | 4.37 µM (inactive) | 5.47 µM (inactive) | > 5.75 µM (inactive) | 6.15 µM (inactive) | > 5.6 µM (inactive) | 2.98 µM (inactive) | > 10 µM (inactive) | > 6.68 µM (inactive)
CC1(C)C2CCC1(CS(=O)(=O)Nc1ccccc1)C(=O)C2 (stereo not given) | > 100 µM (inactive) | 89.9 µM (inactive) | > 100 µM (inactive) | > 100 µM (inactive) | > 100 µM (inactive) | > 100 µM (inactive) | > 100 µM (inactive) | > 100 µM | > 100 µM (inactive) | > 100 µM (inactive) | > 100 µM (inactive) | > 100 µM (inactive) | > 100 µM (inactive) | > 100 µM (inactive) | 75.9 µM (inactive) | > 100 µM (inactive) | > 100 µM (inactive) | > 100 µM (inactive) | > 100 µM (inactive) | > 100 µM (inactive)
CCOC(=O)/C=C\[C@H]1OC(C)(C)O[C@H]1[C@H](O)[C@H]1COC(C)(C)O1 | 22.3 µM (inactive) | 2.57 µM (inactive) | 22.6 µM (inactive) | 32.5 µM (inactive) | 19.8 µM (inactive) | 15.8 µM (inactive) | 19.3 µM (inactive) | 17 µM | > 100 µM (inactive) | 20.8 µM (inactive) | 25.4 µM (inactive) | 17.3 µM (inactive) | 17.8 µM (inactive) | 20.7 µM (inactive) | 18.4 µM (inactive) | 16.6 µM (inactive) | 17.7 µM (inactive) | 13.2 µM (inactive) | > 100 µM (inactive) | 17.4 µM (inactive)
Brc1ccc2c3c1[C@@H]1O[C@@H]1c1cccc(c1-3)[C@@H]1O[C@H]21 | 23.6 µM (inactive) | 19.8 µM (inactive) | 28.4 µM (inactive) | 17.4 µM (inactive) | 13.1 µM (inactive) | 21.8 µM (inactive) | 17.9 µM (inactive) | 18.6 µM | 24.9 µM (inactive) | 9.08 µM (inactive) | 24.2 µM (inactive) | 15 µM (inactive) | 14.5 µM (inactive) | 23.6 µM (inactive) | 15.4 µM (inactive) | 26.9 µM (inactive) | 17.6 µM (inactive) | 20.9 µM (inactive) | 27.5 µM (inactive) | 17.3 µM (inactive)
CC1(C)[C@@H]2C[C@H]1c1cnc(-c3ccccn3)cc1C2[C@@H]1c2cc(-c3ccccn3)ncc2[C@@H]2C[C@H]1C2(C)C (stereo not given in full) | 68.9 µM (inactive) | 55.8 µM (inactive) | 87.9 µM (inactive) | 37.7 µM (inactive) | 31.7 µM (inactive) | 49.1 µM (inactive) | 20.6 µM (inactive) | 24.5 µM | > 100 µM (inactive) | 53 µM (inactive) | 29.3 µM (inactive) | 76 µM (inactive) | 38 µM (inactive) | 73.6 µM (inactive) | 24.3 µM (inactive) | 39.9 µM (inactive) | 88.3 µM (inactive) | > 100 µM (inactive) | 73.6 µM (inactive) | 97.5 µM (inactive)
Cc1ccccc1-n1c(=O)c2ncn(CCCl)c2n(-c2ccccc2C)c1=S | > 100 µM (inactive) | > 100 µM (inactive) | > 100 µM (inactive) | > 100 µM (inactive) | > 100 µM (inactive) | > 100 µM (inactive) | > 100 µM (inactive) | > 100 µM | > 100 µM (inactive) | > 100 µM (inactive) | > 100 µM (inactive) | > 100 µM (inactive) | > 100 µM (inactive) | 73.1 µM (inactive) | > 100 µM (inactive) | > 100 µM (inactive) | > 100 µM (inactive) | > 100 µM (inactive) | > 100 µM (inactive) | > 100 µM (inactive)
